Experimental data from patent US11370774B2, “Substituted benzofuran, benzopyrrole, benzothiophene, and structurally related complement inhibitors” (BioCryst Pharmaceuticals, Inc., priority 2018, dated 2022).

Target: Factor D (Homo sapiens (Human), UniProt P00746)
Test: Factor D esterolytic assay (Z-Lys-SBzl substrate, DTNB, 405 nm)
Type: biochemical
Conditions: Z-Lys-SBzl 1.29 mM, pH 7.5, 10% DMSO, tested a minimum of three times, read-out: Measured Ki (IC50) Value for Compounds: IC50
Experimental: The IC50 value of a compound (i.e., the concentration of the compound that inhibits 50% of the enzymatic activity) was calculated according to the procedure reported in U.S. Pat. No. 6,653,340 B1, e.g., column 74 (incorporated by reference).
Specifically, the compounds were dissolved in a stock solution of DMSO at 10.0 or 100 mM. A portion of this stock solution was added to assay buffer in a final volume of 50 μL. Controls included buffer alone and enzyme solutions to which DMSO was added. Substrate was added to the reaction wells immediately or after incubation at room temperature. The reaction rates were measured spectrophotometrically by the generation of product at 405 nm for 600 sec. Background absorbance at 690 nm was measured and subtracted from the absorbance at 405 nm for each well.
The reaction rate for enzyme alone was compared to the rate of enzyme in the presence of inhibitor and the percent inhibition was calculated as shown below: Percent Inhibition=[Rate without inhibitor−Rate with inhibitor)/(Rate without inhibitor)]×100 Factor D Esterolytic Assay:
An established esterolytic assay for the measurement of Factor D activity and inhibition of Factor D activity was used (Kam, C. M.; McRae, B. J.; Harper, J. W.; Niemann, M. A.; Volanakis, J. E.; Powers, J. C. Human complement proteins D, C2, and B Active site mapping with peptide thioester substrates. J Biol. Chem. 1987, 262, 3444-3451). For this assay Z-Lys-SBzl, 1.29 mM (Kim, S.; Narayana, S. V. L; Volanakis, J. E. Mutational analysis of the substrate binding site of human complement Factor D. Biochemistry. 1994, 33, 14393-14399.) was used as the substrate for Factor D ([…]). Hydrolysis of this compound by Factor D liberated a free sulfhydryl group which is then reacted with 5,5′-dithiobis(2nitrobenzoic acid) producing an intense yellow color (Habeeb, A. F. S. A. Reaction of protein sulfhydryl groups with Ellman's Reagent. Methods in Enzymol. 1976, 25, 457-464). The assays were performed in 96 well microtiter plates and rates of hydrolysis were monitored at 405 nm on a Biotek Synergy H1 plate reader. Hydrolysis rates were reported as change in mOD/min. The assay was conducted in 100 mM HEPES, 500 mM NaCl, pH 7.5 containing 10% DMSO in a final volume of 50 μL per well.
An IC50, a compound concentration which inhibits 50% of the enzymatic activity, was calculated. Compounds in the examples were tested a minimum of three times.

Chain of Factor D (P00746 26-253): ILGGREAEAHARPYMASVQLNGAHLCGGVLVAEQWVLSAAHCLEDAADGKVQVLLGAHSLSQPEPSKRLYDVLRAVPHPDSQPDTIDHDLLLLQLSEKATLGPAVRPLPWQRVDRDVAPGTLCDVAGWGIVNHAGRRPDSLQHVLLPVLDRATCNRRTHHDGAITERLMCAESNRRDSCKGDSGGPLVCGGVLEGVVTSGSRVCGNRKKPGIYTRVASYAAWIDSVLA

IC50 | Compound
1000 to 10000 nM | CCOC(=O)Cc1ccccc1OCc1nc(-c2cccc(CN)c2)nn2cccc12 [Compound 25c, ethyl 2-(2-((2-(3-(aminomethyl)phenyl)pyrrolo[2,1-f][1,2,4]triazin-4-yl)methoxy)phenyl)acetate]
< 1000 nM | NCc1cccc(-c2nc(COc3ccccc3CC(=O)O)nc3c2ccn3CC2CC2)c1 [Compound 26d, 2-(2-((4-(3-(aminomethyl)phenyl)-7-(cyclopropylmethyl)-7H-pyrrolo[2,3-d]pyrimidin-2-yl)methoxy)phenyl)acetic acid]
> 10000 nM | NCc1cccc(-c2cc(C(=O)Nc3ccccc3CC(=O)O)c3nccn3n2)c1 [Compound 27f, 2-(2-(6-(3-(aminomethyl)phenyl)imidazo[1,2-b]pyridazine-8-carboxamido)phenyl)acetic acid]
< 1000 nM | NCc1cccc(-c2nc(C(=O)Nc3ccccc3CC(=O)O)cc3ccoc23)c1 [Compound 28d, 2-(2-(7-(3-(aminomethyl)phenyl)furo[2,3-c]pyridine-5-carboxamido)phenyl)acetic acid]
1000 to 10000 nM | C[C@H](N)c1cccc(-c2nc(C(=O)Nc3ccccc3CC(=O)O)c3cccn3n2)c1 [Compound 29d, (S)-2-(2-(2-(3-(1-aminoethyl)phenyl)pyrrolo[2,1-f][1,2,4]triazine-4-carboxamido)phenyl)acetic acid]
> 10000 nM | Cc1nc2cc(C(=O)Nc3ccccc3CC(=O)O)cc(-c3cccc(CN)c3)c2n1C [Compound 30d, 2-(2-(7-(3-(aminomethyl)phenyl)-1,2-dimethyl-1H-benzo[d]imidazole-5-carboxamido)phenyl)acetic acid]
< 1000 nM | NCc1cccc(-c2nc(C(=O)Nc3ccccc3CC(=O)O)nc3ccsc23)c1 [Compound 31f, 2-(2-(4-(3-(aminomethyl)phenyl)thieno[3,2-d]pyrimidine-2-carboxamido)phenyl)acetic acid]
< 1000 nM | NCc1cccc(-c2nc(C(=O)Nc3ccccc3CC(=O)O)nc3sccc23)c1 [Compound 32h, 2-(2-(4-(3-(aminomethyl)phenyl)thieno[2,3-d]pyrimidine-2-carboxamido)phenyl)acetic acid]
< 1000 nM | C[C@@H](N)c1cccc(-c2nc(C(=O)Nc3ccccc3CC(=O)O)c3cccn3n2)c1F [Compound 33f, (R)-2-(2-(2-(3-(1-aminoethyl)-2-fluorophenyl)pyrrolo[2,1-f][1,2,4]triazine-4-carboxamido)phenyl)acetic acid]
< 1000 nM | NCc1cccc(-c2nc(C(=O)Nc3ccccc3CC(=O)O)c3cccn3n2)c1F [Compound 34f, 2-(2-(2-(3-(aminomethyl)-2-fluorophenyl)pyrrolo[2,1-f][1,2,4]triazine-4-carboxamido)phenyl)acetic acid]
1000 to 10000 nM | NCc1cccc(-c2nc(C(=O)Nc3ccccc3CC(=O)O)cc3ccncc23)c1 [Compound 35f, 2-(2-(1-(3-(aminomethyl)phenyl)-2,7-naphthyridine-3-carboxamido)phenyl)acetic acid]
< 1000 nM | NCc1cccc(-c2nc(C(=O)Nc3ccccc3CC(=O)O)nc3ccoc23)c1 [Compound 36h, 2-(2-(4-(3-(aminomethyl)phenyl)furo[3,2-d]pyrimidine-2-carboxamido)phenyl)acetic acid]
< 1000 nM | NCc1cccc(-c2cc(C(=O)Nc3ccccc3CC(=O)O)cc3[nH]ccc23)c1F [Compound 37c, 2-(2-(4-(3-(aminomethyl)-2-fluorophenyl)-1H-indole-6-carboxamido)phenyl)acetic acid]
< 1000 nM | NCc1coc2c(-c3cc(COc4ccccc4CC(=O)O)cc4ccoc34)cccc12 [Compound 38f, 2-(2-((3′-(aminomethyl)-[7,7′-bibenzofuran]-5-yl)methoxy)phenyl)acetic acid]
< 1000 nM | Cc1ccc(CC(=O)O)c(NC(=O)c2nc(-c3cccc(CN)c3)nn3cccc23)c1 [Compound 39d, 2-(2-(2-(3-(aminomethyl)phenyl)pyrrolo[2,1-f][1,2,4]triazine-4-carboxamido)-4-methylphenyl)acetic acid]
< 1000 nM | Cc1ccc(S(=O)(=O)n2ccc3c(-c4cccc(CN)c4)cc(COc4ccccc4CC(=O)O)cc32)cc1 [Compound 40e, 2-(2-((4-(3-(aminomethyl)phenyl)-1-tosyl-1H-indol-6-yl)methoxy)phenyl)acetic acid]
< 1000 nM | NCc1cccc(-c2nc(C(=O)Nc3sccc3CC(=O)O)cc3ccoc23)c1 [Compound 41d, 2-(2-(7-(3-(aminomethyl)phenyl)furo[2,3-c]pyridine-5-carboxamido)thiophen-3-yl)acetic acid]
< 1000 nM | COc1ccc(CC(=O)O)c(NC(=O)c2nc(-c3cccc(CN)c3)nn3cccc23)c1 [Compound 42d, 2-(2-(2-(3-(aminomethyl)phenyl)pyrrolo[2,1-f][1,2,4]triazine-4-carboxamido)-4-methoxyphenyl)acetic acid]
< 1000 nM | NCc1cccc(-c2cc(COc3ccccc3CC(=O)O)cc3c2OCC3)c1 [Compound 43d, 2-(2-((7-(3-(aminomethyl)phenyl)-2,3-dihydrobenzofuran-5-yl)methoxy)phenyl)acetic acid]
< 1000 nM | NCc1cccc(-c2cc(C(=O)Nc3ccccc3CC(=O)O)cc3c2ccn3CC2CC2)c1 [Compound 44c, 2-(2-(4-(3-(aminomethyl)phenyl)-1-(cyclopropylmethyl)-1H-indole-6-carboxamido)phenyl)acetic acid]
< 1000 nM | Cn1ccc2c(-c3cccc(CN)c3)cc(C(=O)Nc3ccccc3CC(=O)O)cc21 [Compound 45e, 2-(2-(4-(3-(aminomethyl)phenyl)-1-methyl-1H-indole-6-carboxamido)phenyl)acetic acid]
1000 to 10000 nM | NCc1cccc(-c2nc(C(=O)Nc3ccccc3CC(=O)O)c3ccc(CN4CCCC4)n3n2)c1 [Compound 46g, 2-(2-(2-(3-(aminomethyl)phenyl)-7-(pyrrolidin-1-ylmethyl)pyrrolo[2,1-f][1,2,4]triazine-4-carboxamido)phenyl)acetic acid]
1000 to 10000 nM | NCc1ccc(F)c(-c2nc(C(=O)Nc3ccccc3CC(=O)O)c3cccn3n2)c1 [Compound 47f, 2-(2-(2-(5-(aminomethyl)-2-fluorophenyl)pyrrolo[2,1-f][1,2,4]triazine-4-carboxamido)phenyl)acetic acid]
1000 to 10000 nM | NCc1cccc(-c2nc(C(=O)Nc3ccccc3CC(=O)O)nc3c2COC3)c1 [Compound 48h, 2-(2-(4-(3-(aminomethyl)phenyl)-5,7-dihydrofuro[3,4-d]pyrimidine-2-carboxamido)phenyl)acetic acid]
< 1000 nM | Cc1ccc(S(=O)(=O)n2ccc3c(-c4cccc(CN)c4)cc(COc4ccccc4CC(=O)O)nc32)cc1 [Compound 49f, 2-(2-((4-(3-(aminomethyl)phenyl)-1-tosyl-1H-pyrrolo[2,3-b]pyridin-6-yl)methoxy)phenyl)acetic acid]
< 1000 nM | Cn1ccc2c(-c3cccc(CN)c3)cc(COc3ccccc3CC(=O)O)cc21 [Compound 50e, 2-(2-((4-(3-(aminomethyl)phenyl)-1-methyl-1H-indol-6-yl)methoxy)phenyl)acetic acid]
< 1000 nM | Cc1ccc(CC(=O)O)c(NC(=O)c2nc(-c3cccc(CN)c3F)nn3cccc23)c1 [Compound 51c, 2-(2-(2-(3-(aminomethyl)-2-fluorophenyl)pyrrolo[2,1-f][1,2,4]triazine-4-carboxamido)-4-methylphenyl)acetic acid]
